Calls of active or inactive are those of the source.
What was measured:
SUMO E1/E2 = SUMO E1/E2 (Homo sapiens, UniProt P63279+Q9UBE0+Q9UBT2); assay: SAR analysis of SUMOylation using HTRF in an in-Vitro dose response assay. [Related pubchem assays (depositor defined):AID2006, AID2011, AID2018, AID2069, AID2658]; assay type: functional
[1] = DRD fibroblast viability loss – cell-based, non-viral oncogenic, luminescence, dose response (AID 1934); assay type: functional; conditions: Homo sapiens
[2] = luciferase reporter signal suppression in cells – H4 neuroglioma cells, luminescence, dose response (AID 1990); assay type: functional, cell-based
[3] = HepG2 cell cytotoxicity, dose response, cytotoxicity control for non-replicating M. tuberculosis project (AID 489018); assay type: functional; conditions: Mycobacterium tuberculosis
BJ [4] = assay: BJ-TERT fibroblast viability loss – cell-based, RAS-independent, luminescence, dose response (AID 1933); assay type: functional; conditions: Homo sapiens
BJ [5] = assay: BJ-TERT-LT-ST fibroblast viability loss – cell-based, RAS-independent, luminescence, dose response (AID 1935); assay type: functional; conditions: Homo sapiens;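 also: BJ fibroblasts immortalized with TERT plus LT and ST oncogenes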
cells = assay type: functional
[6] = decrease of insulin promoter-GFP reporter – imaging, high-content screening, mouse beta cells (AID 1628); assay type: functional; conditions: MIN6
BJ [7] = assay: cells; assay type: functional, cell-based; conditions: Homo sapiens
[8] = HEK-293T viability loss after treatment – luminescence, T-cell screen hits, cytotoxicity control for TCR NF-kB inhibitor project, dose response (AID 489026); assay type: functional, cell-based;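 also: cells exposed to compound about 14 hours before the viability readout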
[9] = Vero E6 cell cytotoxicity, dose response, cytotoxicity control for non-replicating M. tuberculosis project, secondary assay (AID 492998); assay type: functional, VeroE6; conditions: Vero C1008
[10] = THP-1 cell cytotoxicity, dose response, cytotoxicity control for non-replicating M. tuberculosis project (AID 489025); assay type: functional
[11] = Luminescence Cell-Based Dose Response HTS to Identify Inhibitors of 5'UTR Stem-Loop Driven Prion Protein mRNA Translation in H4 Neuroglioblastoma Cells. [Related pubchem assays: 1827 (Project Summary), 1813 (Primary HTS)]; assay type: functional
[12] = alpha-synuclein stem-loop luciferase translation blockers – H4 neuroglioma cells, luminescence, confirmation (AID 1988); assay type: functional, cell-based
[13] = MIN6 cell viability loss – mouse insulinoma, cytotoxicity control, dose response (AID 2122); assay type: functional;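 also: confirmatory high-throughput counterscreen run to flag cytotoxic compounds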
[14] = target: T1, Tyrosine-protein phosphatase non-receptor type 22 (Homo sapiens, UniProt Q9Y2R2); assay type: functional
T1 sequence (Q9Y2R2 whole entry): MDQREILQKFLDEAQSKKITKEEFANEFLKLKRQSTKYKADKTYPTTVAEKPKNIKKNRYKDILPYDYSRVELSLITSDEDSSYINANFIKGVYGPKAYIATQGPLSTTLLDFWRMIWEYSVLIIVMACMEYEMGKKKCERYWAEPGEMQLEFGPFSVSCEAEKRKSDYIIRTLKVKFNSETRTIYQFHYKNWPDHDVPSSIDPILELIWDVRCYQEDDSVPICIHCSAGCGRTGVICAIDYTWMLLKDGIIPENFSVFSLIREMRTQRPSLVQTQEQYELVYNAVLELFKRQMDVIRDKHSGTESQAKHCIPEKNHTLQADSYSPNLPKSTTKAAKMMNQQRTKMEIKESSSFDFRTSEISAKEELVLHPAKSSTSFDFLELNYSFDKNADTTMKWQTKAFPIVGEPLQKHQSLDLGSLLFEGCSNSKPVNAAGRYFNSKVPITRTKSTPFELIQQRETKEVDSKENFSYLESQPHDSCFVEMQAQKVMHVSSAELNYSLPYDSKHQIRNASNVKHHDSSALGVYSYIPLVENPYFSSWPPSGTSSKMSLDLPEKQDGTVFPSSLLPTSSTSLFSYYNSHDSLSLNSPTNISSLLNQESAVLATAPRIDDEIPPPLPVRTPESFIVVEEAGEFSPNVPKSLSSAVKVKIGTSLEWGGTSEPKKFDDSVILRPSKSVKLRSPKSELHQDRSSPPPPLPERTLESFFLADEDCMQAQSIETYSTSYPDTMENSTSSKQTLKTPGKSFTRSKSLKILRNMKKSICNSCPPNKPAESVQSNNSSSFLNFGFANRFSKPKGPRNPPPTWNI

[15] = target: T1, Tyrosine-protein phosphatase non-receptor type 22; assay type: functional; remark: listed apart in the source
[16] = target: T2, Tyrosine-protein phosphatase non-receptor type 7 (Homo sapiens, UniProt P35236); assay type: functional
T2 sequence (P35236 whole entry): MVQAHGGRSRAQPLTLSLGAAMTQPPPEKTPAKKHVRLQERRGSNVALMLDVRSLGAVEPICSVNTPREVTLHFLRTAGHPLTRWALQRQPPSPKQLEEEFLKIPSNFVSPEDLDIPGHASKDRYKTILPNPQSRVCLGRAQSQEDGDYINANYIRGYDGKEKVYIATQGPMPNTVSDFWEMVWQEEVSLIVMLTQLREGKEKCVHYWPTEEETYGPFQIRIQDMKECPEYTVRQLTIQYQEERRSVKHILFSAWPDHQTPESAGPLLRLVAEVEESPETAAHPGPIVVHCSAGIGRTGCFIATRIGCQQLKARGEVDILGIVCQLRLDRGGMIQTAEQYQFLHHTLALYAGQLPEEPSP

[17] = target: Lysine-specific demethylase 4A (Homo sapiens, UniProt O75164); assay: inhibition of JMJD2A H3K9me3 demethylation – biochemical, DELFIA europium, cherry-picked samples, selectivity assay for GASC-1 inhibitor project, dose response (AID 488840)
Chain of Lysine-specific demethylase 4A (O75164 whole entry): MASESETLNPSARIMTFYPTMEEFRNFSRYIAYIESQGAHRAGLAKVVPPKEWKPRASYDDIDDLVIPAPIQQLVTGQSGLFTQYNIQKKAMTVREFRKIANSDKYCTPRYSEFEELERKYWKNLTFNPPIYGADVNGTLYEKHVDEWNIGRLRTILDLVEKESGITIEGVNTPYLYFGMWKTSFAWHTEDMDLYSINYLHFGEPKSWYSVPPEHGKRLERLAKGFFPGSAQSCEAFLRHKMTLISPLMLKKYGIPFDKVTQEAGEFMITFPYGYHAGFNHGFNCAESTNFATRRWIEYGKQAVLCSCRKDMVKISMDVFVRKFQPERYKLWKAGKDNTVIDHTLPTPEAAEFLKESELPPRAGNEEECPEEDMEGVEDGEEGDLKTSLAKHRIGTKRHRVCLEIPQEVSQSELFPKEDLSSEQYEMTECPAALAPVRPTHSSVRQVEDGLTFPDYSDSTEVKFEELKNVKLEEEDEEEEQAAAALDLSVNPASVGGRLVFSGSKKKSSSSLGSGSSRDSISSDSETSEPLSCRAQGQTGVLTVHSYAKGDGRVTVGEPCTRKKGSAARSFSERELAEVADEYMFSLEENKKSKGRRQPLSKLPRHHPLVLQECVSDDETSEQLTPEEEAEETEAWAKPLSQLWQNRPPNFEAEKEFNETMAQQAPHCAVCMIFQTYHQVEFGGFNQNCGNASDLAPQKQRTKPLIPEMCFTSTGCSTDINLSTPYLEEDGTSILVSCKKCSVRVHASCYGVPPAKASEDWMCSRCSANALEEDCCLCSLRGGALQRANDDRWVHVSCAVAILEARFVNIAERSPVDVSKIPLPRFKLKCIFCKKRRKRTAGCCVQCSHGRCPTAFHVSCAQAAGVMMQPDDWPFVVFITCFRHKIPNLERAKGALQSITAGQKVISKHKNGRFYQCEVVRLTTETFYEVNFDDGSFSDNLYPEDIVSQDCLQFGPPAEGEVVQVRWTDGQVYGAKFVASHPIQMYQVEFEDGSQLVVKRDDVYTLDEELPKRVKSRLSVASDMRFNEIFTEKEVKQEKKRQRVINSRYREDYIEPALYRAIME

[18] = target: Lysine-specific demethylase 4C (Homo sapiens, UniProt Q9H3R0); assay: inhibition of JMJD2C H3K9me3 demethylation – biochemical, DELFIA europium, cherry-picked samples, dose response (AID 488835); assay type: functional
Chain of Lysine-specific demethylase 4C (Q9H3R0 whole entry): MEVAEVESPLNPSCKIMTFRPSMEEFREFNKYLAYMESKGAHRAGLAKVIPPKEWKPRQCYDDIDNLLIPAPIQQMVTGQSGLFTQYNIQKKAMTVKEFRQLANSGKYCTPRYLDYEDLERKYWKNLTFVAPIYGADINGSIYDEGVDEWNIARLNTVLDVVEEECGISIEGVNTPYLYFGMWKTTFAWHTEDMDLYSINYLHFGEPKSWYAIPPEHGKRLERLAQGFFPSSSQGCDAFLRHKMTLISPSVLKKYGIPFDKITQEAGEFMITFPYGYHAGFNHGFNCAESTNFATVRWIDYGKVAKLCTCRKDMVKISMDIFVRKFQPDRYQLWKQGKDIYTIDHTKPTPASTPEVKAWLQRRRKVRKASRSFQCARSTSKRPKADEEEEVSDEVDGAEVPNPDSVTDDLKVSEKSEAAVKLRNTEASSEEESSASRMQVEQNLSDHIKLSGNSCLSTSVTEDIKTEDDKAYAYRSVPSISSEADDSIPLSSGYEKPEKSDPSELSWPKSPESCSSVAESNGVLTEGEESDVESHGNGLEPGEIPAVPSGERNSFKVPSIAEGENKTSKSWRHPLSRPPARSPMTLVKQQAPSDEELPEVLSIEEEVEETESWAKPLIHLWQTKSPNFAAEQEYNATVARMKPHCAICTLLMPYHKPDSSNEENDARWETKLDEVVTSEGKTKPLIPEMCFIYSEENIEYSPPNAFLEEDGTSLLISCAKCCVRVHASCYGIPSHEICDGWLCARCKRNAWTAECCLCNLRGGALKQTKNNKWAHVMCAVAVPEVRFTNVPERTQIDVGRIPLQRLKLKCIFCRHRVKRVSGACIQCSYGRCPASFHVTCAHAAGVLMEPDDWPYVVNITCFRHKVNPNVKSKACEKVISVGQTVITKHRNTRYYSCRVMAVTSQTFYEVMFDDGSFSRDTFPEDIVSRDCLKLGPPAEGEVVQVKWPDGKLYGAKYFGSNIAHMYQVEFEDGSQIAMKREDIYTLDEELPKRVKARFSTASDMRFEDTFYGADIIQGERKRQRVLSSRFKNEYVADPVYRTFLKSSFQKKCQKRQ

Cytochrome P450 2D6 = Cytochrome P450 2D6 (Homo sapiens, UniProt P10635);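 also: CYP2D6 member of a cytochrome P450 panel assay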
Chain of Cytochrome P450 2D6 (P10635 whole entry): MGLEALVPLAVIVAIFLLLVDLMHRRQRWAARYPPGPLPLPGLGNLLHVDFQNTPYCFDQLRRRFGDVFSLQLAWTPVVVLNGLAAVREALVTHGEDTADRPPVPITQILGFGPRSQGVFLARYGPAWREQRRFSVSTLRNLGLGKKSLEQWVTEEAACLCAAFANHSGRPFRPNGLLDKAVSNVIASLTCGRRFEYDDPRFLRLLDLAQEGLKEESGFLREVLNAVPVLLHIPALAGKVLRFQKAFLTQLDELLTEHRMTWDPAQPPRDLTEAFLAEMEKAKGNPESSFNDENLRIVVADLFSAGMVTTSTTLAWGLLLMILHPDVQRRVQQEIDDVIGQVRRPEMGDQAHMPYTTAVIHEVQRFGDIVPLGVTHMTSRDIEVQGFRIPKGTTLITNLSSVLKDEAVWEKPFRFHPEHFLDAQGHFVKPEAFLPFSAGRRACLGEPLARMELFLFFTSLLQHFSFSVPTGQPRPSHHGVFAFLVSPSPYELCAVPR

Protein RecA = target: T3, Protein RecA (Mycobacterium tuberculosis, UniProt P9WHJ3); assay: Fluorescence Cell-Free Homogeneous Dose Retest to Identify Inhibitors of RecA-Intein Splicing Activity. [Related pubchem assays (depositor defined):AID2097, AID2223, AID489010, AID492950]; assay type: functional
T3 sequence (P9WHJ3 whole entry): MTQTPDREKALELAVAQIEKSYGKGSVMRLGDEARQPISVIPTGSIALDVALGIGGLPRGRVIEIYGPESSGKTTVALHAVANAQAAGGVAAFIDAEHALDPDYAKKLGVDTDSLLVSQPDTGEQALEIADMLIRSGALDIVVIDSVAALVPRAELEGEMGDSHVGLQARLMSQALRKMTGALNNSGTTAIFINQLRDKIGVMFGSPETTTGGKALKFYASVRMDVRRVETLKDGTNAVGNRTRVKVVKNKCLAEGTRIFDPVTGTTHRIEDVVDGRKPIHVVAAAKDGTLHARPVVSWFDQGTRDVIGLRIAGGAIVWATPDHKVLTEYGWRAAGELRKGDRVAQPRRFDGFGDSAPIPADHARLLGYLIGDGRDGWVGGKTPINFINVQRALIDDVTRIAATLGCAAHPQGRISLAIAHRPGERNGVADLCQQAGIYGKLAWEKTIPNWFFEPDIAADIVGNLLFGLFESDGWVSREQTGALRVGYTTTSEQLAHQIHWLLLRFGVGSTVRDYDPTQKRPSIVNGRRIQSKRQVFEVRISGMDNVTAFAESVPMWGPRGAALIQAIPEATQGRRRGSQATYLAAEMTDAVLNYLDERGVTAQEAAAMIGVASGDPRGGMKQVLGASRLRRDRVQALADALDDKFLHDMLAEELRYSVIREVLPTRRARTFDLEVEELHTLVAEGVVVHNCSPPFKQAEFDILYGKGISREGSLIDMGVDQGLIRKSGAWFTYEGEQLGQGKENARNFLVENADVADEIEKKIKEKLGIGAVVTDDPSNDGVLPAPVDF

[19] = target: T4, Replicative DNA helicase DnaB (Mycobacterium tuberculosis, UniProt P9WMR3); assay: DnaB intein splicing inhibitors, dose response, biochemical, cell-free fluorescence (AID 449749); assay type: functional
T4 sequence (P9WMR3 whole entry): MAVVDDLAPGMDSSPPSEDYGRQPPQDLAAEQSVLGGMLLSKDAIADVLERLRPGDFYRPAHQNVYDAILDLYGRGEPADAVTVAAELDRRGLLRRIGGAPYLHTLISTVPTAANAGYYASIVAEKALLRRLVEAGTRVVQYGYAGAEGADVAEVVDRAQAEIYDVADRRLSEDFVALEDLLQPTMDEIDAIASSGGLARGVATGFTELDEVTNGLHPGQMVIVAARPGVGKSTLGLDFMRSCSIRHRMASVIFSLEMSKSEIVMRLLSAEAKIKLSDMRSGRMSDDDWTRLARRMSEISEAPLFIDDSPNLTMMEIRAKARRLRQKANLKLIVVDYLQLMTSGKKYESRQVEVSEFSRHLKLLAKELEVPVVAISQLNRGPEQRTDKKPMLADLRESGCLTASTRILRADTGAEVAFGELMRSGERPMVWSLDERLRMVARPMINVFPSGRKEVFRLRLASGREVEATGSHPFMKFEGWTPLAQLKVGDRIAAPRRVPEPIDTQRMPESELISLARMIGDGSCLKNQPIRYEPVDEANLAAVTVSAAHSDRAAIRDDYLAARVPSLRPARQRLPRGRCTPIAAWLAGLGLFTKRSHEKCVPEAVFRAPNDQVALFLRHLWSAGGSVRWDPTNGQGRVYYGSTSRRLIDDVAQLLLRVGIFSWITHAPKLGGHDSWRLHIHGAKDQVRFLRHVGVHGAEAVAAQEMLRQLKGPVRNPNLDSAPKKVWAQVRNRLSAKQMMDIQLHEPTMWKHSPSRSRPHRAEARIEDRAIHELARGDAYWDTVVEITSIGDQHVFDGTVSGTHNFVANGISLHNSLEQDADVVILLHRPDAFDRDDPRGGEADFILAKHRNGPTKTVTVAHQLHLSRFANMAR

Chain of SUMO E1/E2 (Q9UBE0 whole entry): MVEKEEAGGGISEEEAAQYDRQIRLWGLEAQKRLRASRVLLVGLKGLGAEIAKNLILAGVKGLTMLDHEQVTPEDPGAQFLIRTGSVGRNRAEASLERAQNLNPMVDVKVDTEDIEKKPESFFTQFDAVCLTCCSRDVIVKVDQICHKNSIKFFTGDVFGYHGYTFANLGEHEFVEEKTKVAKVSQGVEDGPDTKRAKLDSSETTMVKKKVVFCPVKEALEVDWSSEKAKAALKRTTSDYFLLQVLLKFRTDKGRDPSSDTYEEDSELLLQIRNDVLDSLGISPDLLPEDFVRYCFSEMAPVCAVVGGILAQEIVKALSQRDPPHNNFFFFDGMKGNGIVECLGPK
Chain of SUMO E1/E2 (Q9UBT2 whole entry): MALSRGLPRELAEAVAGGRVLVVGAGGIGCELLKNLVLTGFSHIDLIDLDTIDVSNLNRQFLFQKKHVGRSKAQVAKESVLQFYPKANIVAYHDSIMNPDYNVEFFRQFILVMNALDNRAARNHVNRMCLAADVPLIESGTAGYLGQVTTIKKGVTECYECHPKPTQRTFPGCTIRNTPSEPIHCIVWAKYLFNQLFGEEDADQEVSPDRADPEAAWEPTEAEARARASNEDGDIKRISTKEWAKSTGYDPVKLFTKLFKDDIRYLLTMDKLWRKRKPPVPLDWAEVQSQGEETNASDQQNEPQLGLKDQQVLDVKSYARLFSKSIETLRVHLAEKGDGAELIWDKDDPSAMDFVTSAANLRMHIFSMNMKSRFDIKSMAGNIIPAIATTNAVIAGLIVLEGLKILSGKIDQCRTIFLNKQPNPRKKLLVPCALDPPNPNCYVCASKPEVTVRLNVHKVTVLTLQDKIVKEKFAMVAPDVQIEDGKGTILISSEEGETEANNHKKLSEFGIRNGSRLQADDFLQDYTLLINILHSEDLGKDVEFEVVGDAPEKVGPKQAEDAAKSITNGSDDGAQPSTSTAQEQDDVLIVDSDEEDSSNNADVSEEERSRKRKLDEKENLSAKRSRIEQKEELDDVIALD
Chain of SUMO E1/E2 (P63279 whole entry): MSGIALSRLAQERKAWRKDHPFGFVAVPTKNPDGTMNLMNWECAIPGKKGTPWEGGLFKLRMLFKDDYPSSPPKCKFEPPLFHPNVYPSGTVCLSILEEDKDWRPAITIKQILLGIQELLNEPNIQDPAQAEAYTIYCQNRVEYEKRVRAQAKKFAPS

## CC(=NOCc1nc2ccccc2c(=O)n1N=Cc1cc([N+](=O)[O-])ccc1O)c1ccccc1
SUMO E1/E2
  IC50: 27000 nM (active)

## COc1ccc(Nc2cc(C)nc(-n3nc(C)cc3C)n2)cc1
[1]
  EC50: 400 nM (active)
[2]
  EC50: 266 nM (active)
[3]
  CC50: > 20000 nM (active)
BJ [4]
  EC50: 625 nM (active)
BJ [5]
  EC50: 388 nM (inconclusive)
cells
  IC50: 380 nM (active)
[6]
  IC50: 2540 nM (active)
BJ [7]
  EC50: 973 nM (active)
[8]
  IC50: > 80000 nM (inactive)
[9]
  CC50: 1410 nM (active)
[10]
  CC50: 201 nM (active)
[11]
  EC50: 142 nM (active)
[12]
  EC50: < 195 nM (active)
[13]
  IC50: < 250 nM (active)

## Cc1ccc(N2CCN(CCCCN3C(=O)C4CCCN4C3=O)CC2)cc1 (stereo not drawn)
[14]
  IC50: > 79400 nM (inactive)
[15]
  IC50: > 79400 nM (inactive)
[16]
  IC50: > 79400 nM (inactive)

## COc1ccccc1NC(=O)COC(=O)c1nc(O)nc(O)c1N
[17]
  AC50: 8340 nM (active)
[18]
  AC50: 6730 nM (active)

## CCO/C(O)=C1/C(C)=NC2(O)c3ccccc3C(=O)C12O (stereo not drawn)
Cytochrome P450 2D6
  AC50: inconclusive
Protein RecA
  EC50: 18100 nM (active)
[19]
  AC50: 24000 nM (active)

Reference: ChEMBL document CHEMBL1201862, “PubChem BioAssay data set” (2004)
